Like-named read-outs stand apart in the source and are kept apart here.
What was measured:
hepatitis C replicon = hepatitis C replicon EC50 assay; assay type: cell-based; conditions: Hepatitis C virus
From the text: NS3-NS4 inhibition activity can be determined using known assay methods.

NS3/NS4 complexes = NS3/NS4 complexes (Hepatitis C virus genotype 1a, UniProt P27958); assay: biochemical
From the text: NS3-NS4 inhibition activity can be determined using known assay methods. For example, NS3/NS4 complexes may be formed and inhibitory concentrations of test compounds determined as described in U.S. Patent Application Publication Number 2007/0054842 paragraph numbers 1497-1509, which is incorporated herein by reference in its entirety. Similarly, hepatitis C replicon EC50 may be determined using known assay methods such as described in U.S. Patent Application Publication Number 2007/0054842 paragraph numbers 1510-1515, which is incorporated herein by reference in its entirety. Assays may be conducted at ambient temperature (23° C.) in assay buffer containing 50 mM Tris-HCl, pH 7.5, 15% glycerol, 0.6 mM Lauryldimethylamine Oxide (LDAO), 25 μM NS4A peptide, and 10 mM Dithiothreitol (DTT).

[1] = hepatitis C replicon, read-out: EC50
[2] = NS3-NS4 activity, 23° C., pH 7.5, 25 μM NS4A peptide, read-out: IC50

Chain of NS3/NS4 complexes (P27958 1027-1657, one chain of several): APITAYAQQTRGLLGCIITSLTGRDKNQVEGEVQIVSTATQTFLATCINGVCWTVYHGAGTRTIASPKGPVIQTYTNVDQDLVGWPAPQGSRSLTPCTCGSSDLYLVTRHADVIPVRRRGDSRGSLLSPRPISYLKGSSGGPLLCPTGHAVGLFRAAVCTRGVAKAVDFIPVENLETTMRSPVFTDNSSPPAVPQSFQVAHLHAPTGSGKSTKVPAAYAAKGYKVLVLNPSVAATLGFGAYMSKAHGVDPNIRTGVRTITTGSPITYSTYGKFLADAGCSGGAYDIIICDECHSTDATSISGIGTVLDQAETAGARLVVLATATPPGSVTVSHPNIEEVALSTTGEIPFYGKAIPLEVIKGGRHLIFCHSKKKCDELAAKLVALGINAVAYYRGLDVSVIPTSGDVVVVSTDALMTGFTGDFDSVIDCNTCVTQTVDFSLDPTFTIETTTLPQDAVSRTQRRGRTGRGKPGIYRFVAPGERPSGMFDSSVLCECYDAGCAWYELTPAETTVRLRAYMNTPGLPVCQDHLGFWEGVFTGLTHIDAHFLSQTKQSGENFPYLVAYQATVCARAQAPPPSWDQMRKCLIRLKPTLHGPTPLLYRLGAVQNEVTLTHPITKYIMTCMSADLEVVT

Row | SMILES | EC50 (hepatitis C replicon; [1]) | IC50 (NS3/NS4 complexes; [2]) | EC50 (hepatitis C replicon) | IC50 (NS3/NS4 complexes)
1 | CC(C)n1c(O[C@@H]2C[C@H]3C(=O)N[C@]4(C(=O)NS(=O)(=O)N(C)C)C[C@H]4/C=C\CCCCC[C@H](NC(=O)OC(C)(C)C)C(=O)N3C2)nc2c(-c3cncc(N4CCCC4)n3)cccc21 [Compound 162] | < 10 nM | < 10 nM |  | 
2 | CC(C)n1c(O[C@@H]2C[C@H]3C(=O)N[C@]4(C(=O)NS(=O)(=O)N(C)C)C[C@H]4/C=C\CCCCC[C@H](NC(=O)OC(C)(C)C)C(=O)N3C2)nc2c(-c3cscn3)cccc21 [Compound 163] | < 10 nM | < 10 nM |  | 
3 | CC(C)n1c(O[C@@H]2C[C@H]3C(=O)N[C@]4(C(=O)NS(=O)(=O)N(C)C)C[C@H]4/C=C\CCCCC[C@H](NC(=O)OC(C)(C)C)C(=O)N3C2)nc2c(-c3csc(-c4ccc(F)c(F)c4)n3)cccc21 [Compound 164] | > 100 nM | 10 to 100 nM |  | 
4 | CC(C)n1c(O[C@@H]2C[C@H]3C(=O)N[C@]4(C(=O)NS(=O)(=O)C5(C)CC5)C[C@H]4/C=C\CCCCC[C@H](NC(=O)OC4CCCC4)C(=O)N3C2)nc2c(-c3nc(Cc4ccccc4)cs3)cccc21 [Compound 165] | < 10 nM | < 10 nM |  | 
5 | CC(C)n1c(O[C@@H]2C[C@H]3C(=O)N[C@]4(C(=O)NS(=O)(=O)C5(C)CC5)C[C@H]4/C=C\CCCCC[C@H](NC(=O)O[C@@H]4C[C@@H]5C[C@@H]5C4)C(=O)N3C2)nc2c(-c3nc(Cc4ccccc4)cs3)cccc21 [Compound 166] | < 10 nM | < 10 nM |  | 
6 | Cc1ccc2c(nc(O[C@@H]3C[C@H]4C(=O)N[C@]5(C(=O)NS(=O)(=O)N(C)C)C[C@H]5/C=C\CCCCC[C@H](NC(=O)OC(C)(C)C)C(=O)N4C3)n2C(C)C)c1-c1nc(C(C)C)cs1 [Compound 167] | 10 to 100 nM | < 10 nM |  | 
7 | Cc1ccc2c(nc(O[C@@H]3C[C@H]4C(=O)N[C@]5(C(=O)NS(=O)(=O)N(C)C)C[C@H]5/C=C\CCCCC[C@H](NC(=O)OC(C)(C)C)C(=O)N4C3)n2C(C)C)c1-c1nc(C2CCCC2)cs1 [Compound 168] | 10 to 100 nM | < 10 nM |  | 
8 | CC(C)n1c(O[C@@H]2C[C@H]3C(=O)N[C@]4(C(=O)NS(=O)(=O)N(C)C)C[C@H]4/C=C\CCCCC[C@H](N)C(=O)N3C2)nc2c(-c3csc(N4CCCCC4)n3)cccc21 [Compound 169] | > 100 nM | < 10 nM |  | 
9 | CC(C)n1c(O[C@@H]2C[C@H]3C(=O)N[C@]4(C(=O)NS(=O)(=O)C5(C)CC5)C[C@H]4/C=C\CCCCC[C@H](N)C(=O)N3C2)nc2c(-c3csc(N4CCCCC4)n3)cccc21 [Compound 170] |  | < 10 nM | 10 to 100 nM | 
10 | CC(C)n1c(O[C@@H]2C[C@H]3C(=O)N[C@]4(C(=O)NS(=O)(=O)C5CC5)C[C@H]4/C=C\CCCCC[C@H](NC(=O)OC(C)(C)C)C(=O)N3C2)nc2c(-c3nc(C4CCCCC4)cs3)cccc21 [Compound 172] | < 10 nM | < 10 nM |  | 
11 | CC(C)n1c(O[C@@H]2C[C@H]3C(=O)N[C@]4(C(=O)NS(=O)(=O)C5CC5)C[C@H]4/C=C\CCCCC[C@H](N)C(=O)N3C2)nc2c(-c3nc(C4CCCCC4)cs3)cccc21 [Compound 173] | > 100 nM | < 10 nM |  | 
12 | CC(C)n1c(O[C@@H]2C[C@H]3C(=O)N[C@]4(C(=O)NS(=O)(=O)C5(C)CC5)C[C@H]4/C=C\CCCCC[C@H](NC(=O)OC(C)(C)C)C(=O)N3C2)nc2c(-c3nc(C(F)(F)F)cs3)cccc21 [Compound 174] | < 10 nM | < 10 nM |  | 
13 | CC(C)n1c(O[C@@H]2C[C@H]3C(=O)N[C@]4(C(=O)NS(=O)(=O)C5(C)CC5)C[C@H]4/C=C\CCCCC[C@H](N)C(=O)N3C2)nc2c(-c3nc(C(F)(F)F)cs3)cccc21 [Compound 175] | 10 to 100 nM | < 10 nM |  | 
14 | CC(C)n1c(O[C@@H]2C[C@H]3C(=O)N[C@]4(C(=O)NS(=O)(=O)C5(C)CC5)C[C@H]4/C=C\CCCCC[C@H](NC(=O)OC(C)(C)C)C(=O)N3C2)nc2c(-c3csc(C(F)(F)F)n3)cccc21 [Compound 176] | < 10 nM | < 10 nM |  | 
15 | COc1ccccc1-c1csc(-c2cccc3c2nc(O[C@@H]2C[C@H]4C(=O)N[C@]5(C(=O)NS(=O)(=O)C6(C)CC6)C[C@H]5/C=C\CCCCC[C@H](N)C(=O)N4C2)n3C(C)C)n1 [Compound 177] | > 100 nM | < 10 nM |  | 
16 | CC(C)n1c(O[C@@H]2C[C@H]3C(=O)N[C@]4(C(=O)NS(=O)(=O)C5(C)CC5)C[C@H]4/C=C\CCCCC[C@H](N)C(=O)N3C2)nc2c(-c3nc(C4CCCCC4)cs3)cccc21 [Compound 178] | > 100 nM | < 10 nM |  | 
17 | CC(C)n1c(O[C@@H]2C[C@H]3C(=O)N[C@]4(C(=O)NS(=O)(=O)C5(C)CC5)C[C@H]4/C=C\CCCCC[C@H](NC(=O)OC(C)(C)C)C(=O)N3C2)nc2c(-c3nc(C4CCCCC4)cs3)cccc21 [Compound 179] |  | < 10 nM | < 10 nM | 
18 | CC(C)n1c(O[C@@H]2C[C@H]3C(=O)N[C@]4(C(=O)NS(=O)(=O)C5(C)CC5)C[C@H]4/C=C\CCCCC[C@H](NC(=O)OC(C)(C)C)C(=O)N3C2)nc2c(-c3nc(C4CCOCC4)cs3)cccc21 [Compound 181] | < 10 nM | < 10 nM |  | 

Row | SMILES | EC50 (hepatitis C replicon; [1]) | IC50 (NS3/NS4 complexes; [2]) | EC50 (hepatitis C replicon) | IC50 (NS3/NS4 complexes)
19 | CC(C)n1c(O[C@@H]2C[C@H]3C(=O)N[C@]4(C(=O)NS(=O)(=O)C5(C)CC5)C[C@H]4/C=C\CCCCC[C@H](NC(=O)OC(C)(C)C)C(=O)N3C2)nc2c(-c3nc(C4CCNCC4)cs3)cccc21 [Compound 182] |  |  | 10 to 100 nM | < 10 nM
20 | CC(C)n1c(O[C@@H]2C[C@H]3C(=O)N[C@]4(C(=O)NS(=O)(=O)C5(C)CC5)C[C@H]4/C=C\CCCCC[C@H](NC(=O)OC(C)(C)C)C(=O)N3C2)nc2c(-c3nc(C4CCN(C)CC4)cs3)cccc21 [Compound 183] | < 10 nM | < 10 nM |  | 
21 | CC(C)n1c(O[C@@H]2C[C@H]3C(=O)N[C@]4(C(=O)NS(=O)(=O)C5CC5)C[C@H]4/C=C\CCCCC[C@H](NC(=O)OC(C)(C)C)C(=O)N3C2)nc2c(-c3nc(C4CCN(C)CC4)cs3)cccc21 [Compound 184] | < 10 nM | < 10 nM |  | 
22 | C#CC1(S(=O)(=O)NC(=O)[C@@]23C[C@H]2/C=C\CCCCC[C@H](NC(=O)OC(C)(C)C)C(=O)N2C[C@H](Oc4nc5c(-c6nc(C7CCCCC7)cs6)cccc5n4C(C)C)C[C@H]2C(=O)N3)CC1 [Compound 188] |  |  | < 10 nM | < 10 nM
23 | CC#CC1(S(=O)(=O)NC(=O)[C@@]23C[C@H]2/C=C\CCCCC[C@H](NC(=O)OC(C)(C)C)C(=O)N2C[C@H](Oc4nc5c(-c6nc(C7CCCCC7)cs6)cccc5n4C(C)C)C[C@H]2C(=O)N3)CC1 [Compound 189] | < 10 nM | < 10 nM |  | 
24 | CC(C)n1c(O[C@@H]2C[C@H]3C(=O)N[C@]4(C(=O)NS(=O)(=O)C5CC5)C[C@H]4/C=C\CCCCC[C@H](NC(=O)OC(C)(C)C)C(=O)N3C2)nc2c(-c3nc(C4CCNCC4)cs3)cccc21 [Compound 190] | < 10 nM | < 10 nM |  | 
25 | CC(C)(C)OC(=O)N[C@H]1CCCCC/C=C\[C@@H]2C[C@@]2(C(=O)NS(=O)(=O)C2(C)CC2)NC(=O)[C@@H]2C[C@@H](Oc3nc4cccc(-c5nc(-c6ccccc6)cs5)c4s3)CN2C1=O [Compound 201] | < 10 nM | < 10 nM |  | 
26 | CC(C)(C)OC(=O)N[C@H]1CCCCC/C=C\[C@@H]2C[C@@]2(C(=O)NS(=O)(=O)C2(C)CC2)NC(=O)[C@@H]2C[C@@H](Oc3ncnc4c3CCCC4)CN2C1=O [Compound 301] | 10 to 100 nM | < 10 nM |  | 
27 | CC(C)(C)OC(=O)N[C@H]1CCCCC/C=C\[C@@H]2C[C@@]2(C(=O)NS(=O)(=O)C2(C)CC2)NC(=O)[C@@H]2C[C@@H](Oc3nc(-c4ccccc4)nc4c3CCCC4)CN2C1=O [Compound 302] | < 10 nM | < 10 nM |  | 
28 | CC(C)c1csc(-c2nc3c(c(O[C@@H]4C[C@H]5C(=O)N[C@]6(C(=O)NS(=O)(=O)C7(C)CC7)C[C@H]6/C=C\CCCCC[C@H](NC(=O)OC(C)(C)C)C(=O)N5C4)n2)CCCC3)n1 [Compound 303] |  | 10 to 100 nM | 10 to 100 nM | 
29 | CC(C)c1csc(-c2nc3c(c(O[C@@H]4C[C@H]5C(=O)N[C@]6(C(=O)NS(=O)(=O)C7(C)CC7)C[C@H]6/C=C\CCCCC[C@H](N)C(=O)N5C4)n2)CCCC3)n1 [Compound 304] |  | 10 to 100 nM | > 100 nM | 
30 | CC(C)(C)OC(=O)N[C@H]1CCCCC/C=C\[C@@H]2C[C@@]2(C(=O)NS(=O)(=O)C2(C)CC2)NC(=O)[C@@H]2C[C@@H](Oc3cc(-c4ccccc4)nc4c3CCCC4)CN2C1=O [Compound 402] |  | < 10 nM | < 10 nM | 
31 | CC(C)(C)OC(=O)N[C@H]1CCCCC/C=C\[C@@H]2C[C@@]2(C(=O)NS(=O)(=O)C2(C)CC2)NC(=O)[C@@H]2C[C@@H](Oc3ccnc4c3CCCC4)CN2C1=O [Compound 403] |  | < 10 nM | 10 to 100 nM | 
32 | CC(C)(C)OC(=O)N[C@H]1CCCCC/C=C\[C@@H]2C[C@@]2(C(=O)NS(=O)(=O)C2(C)CC2)NC(=O)[C@@H]2C[C@@H](Oc3nc(-c4ccccc4)cc4c3CCCC4)CN2C1=O [Compound 404] | > 100 nM | < 10 nM |  | 
33 | CC(C)c1csc(-c2cc3c(c(O[C@@H]4C[C@H]5C(=O)N[C@]6(C(=O)NS(=O)(=O)C7(C)CC7)C[C@H]6/C=C\CCCCC[C@H](NC(=O)OC(C)(C)C)C(=O)N5C4)n2)CCCC3)n1 [Compound 405] | > 100 nM | < 10 nM |  | 
34 | CC(C)c1csc(-c2cc(O[C@@H]3C[C@H]4C(=O)N[C@]5(C(=O)NS(=O)(=O)C6(C)CC6)C[C@H]5/C=C\CCCCC[C@H](NC(=O)OC(C)(C)C)C(=O)N4C3)c3c(n2)CCCC3)n1 [Compound 406] | < 10 nM | < 10 nM |  | 
35 | COc1ccc2c(O[C@@H]3C[C@H]4C(=O)N[C@]5(C(=O)NS(=O)(=O)C6(C)CC6)C[C@H]5/C=C\CCCCC[C@H](NC(=O)OC(C)(C)C)C(=O)N4C3)cc(C(C)C)nc2c1C [Compound 501] | < 10 nM | < 10 nM |  | 

Reference: US20120101032A1, “NOVEL MACROCYCLIC INHIBITORS OF HEPATITIS C VIRUS REPLICATION” (priority 2010, published 2012)
